Results taken from the CheMixHub viscosity set.

Experiment: xn = mol fraction of the nth substance listed

Cl.N[C@@H](CS)C(=O)O.O + O
viscosity [mPa·s], 101 kPa
Details	303.15 K	308.15 K	313.15 K	318.15 K	323.15 K
x1 = 0.01	0.8529	0.7892	0.7275	0.6712	0.6181
x1 = 0.0122	0.9644	–	0.795	–	0.6742
x1 = 0.02	1.126	1.023	0.9082	0.8248	0.769
x1 = 0.0272	1.2	–	0.9836	–	0.8276
x1 = 0.04	1.506	1.356	1.273	1.112	1.018
x1 = 0.0463	1.591	–	1.288	–	1.084
x1 = 0.0579	1.877	–	1.508	–	1.244
x1 = 0.0714	2.27	–	1.797	–	1.49
x1 = 0.08	2.486	2.237	1.968	1.785	1.594
x1 = 0.0871	2.805	–	2.191	–	1.711
x1 = 0.1	3.391	2.955	2.572	2.293	2.048
x1 = 0.1057	3.602	–	2.783	–	2.239
x1 = 0.11	3.97	3.387	2.951	2.575	2.336
x1 = 0.12	4.627	3.883	3.387	2.93	2.67
x1 = 0.1281	5.207	–	3.69	–	2.906
x1 = 0.13	5.349	4.451	3.878	3.35	3.052
x1 = 0.14	6.119	5.101	4.426	3.833	3.483
x1 = 0.15	6.915	5.842	5.027	4.408	3.963
x1 = 0.1558	7.415	–	5.463	–	4.309
x1 = 0.16	7.706	6.524	5.678	5.017	4.492
x1 = 0.17	8.459	7.218	6.372	5.719	5.066
x1 = 0.18	9.134	8.014	7.104	6.301	5.685
x1 = 0.19	9.972	8.826	7.864	7.002	6.342
x1 = 0.1903	9.687	–	7.875	–	6.354

NCCCN + O
viscosity [mPa·s]
Details	303.15 K	308.15 K	313.15 K	318.15 K	323.15 K
101 kPa, x1 = 0.05	1.58	1.38	1.227	1.097	–
101 kPa, x1 = 0.0966	2.754	2.355	2.03	–	–
101 kPa, x1 = 0.1458	4.36	3.619	3.031	–	–
101 kPa, x1 = 0.199	6.289	5.088	4.188	–	–
101 kPa, x1 = 0.2473	7.568	6.055	4.93	–	–
101 kPa, x1 = 0.2961	8.219	6.535	5.313	–	–
101 kPa, x1 = 0.3465	7.991	6.401	5.22	–	–
101 kPa, x1 = 0.3974	7.438	6.022	4.946	–	–
101 kPa, x1 = 0.4955	5.878	4.832	4.038	–	–
101 kPa, x1 = 0.5995	4.307	3.644	3.127	–	–
101 kPa, x1 = 0.6969	3.224	2.779	2.419	–	–
101 kPa, x1 = 0.8006	2.501	2.177	1.921	–	–
101 kPa, x1 = 0.8936	1.997	1.762	1.573	–	–
101.33 kPa, x1 = 0.0518	1.637	1.437	1.267	1.127	1.008
101.33 kPa, x1 = 0.1	2.991	2.534	2.174	1.887	1.65
101.33 kPa, x1 = 0.1498	4.882	4.012	3.345	2.827	2.417
101.33 kPa, x1 = 0.2004	6.762	5.446	4.467	3.714	3.132
101.33 kPa, x1 = 0.2498	7.872	6.309	5.128	4.236	3.548
101.33 kPa, x1 = 0.2734	8.088	6.473	5.268	4.351	3.646
101.33 kPa, x1 = 0.2984	8.108	6.502	5.297	4.379	3.662
101.33 kPa, x1 = 0.3248	7.918	6.364	5.199	4.307	3.619
101.33 kPa, x1 = 0.3502	7.614	6.155	5.027	4.189	3.518
101.33 kPa, x1 = 0.3766	7.121	5.774	4.754	3.972	3.354
101.33 kPa, x1 = 0.4041	6.681	5.464	4.509	3.787	3.211
101.33 kPa, x1 = 0.4467	5.911	4.871	4.068	3.445	2.935
